# Results as given in US20260207535A1, “CRIBLAGE INHIBITEURS USP8” (COMMISSARIAT A L'ENERGIE ATOMIQUE ET AUX ENERGIES …, priority 2022, published 2026).
# Read-outs that look alike come from different tables or passages of the source.
# Assays:
# [1] = molecular target: T1, Full length USP8 (USP8FL) (Homo sapiens, UniProt P40818); assay: USP8FL (full length USP8) enzymatic inhibition, Ub-Rhodamine 110 hydrolysis in L-cysteine buffer; assay type: biochemical; conditions: USP8 FL 75 nM, Ub-Rho 0.1 μM, L-cysteine buffer
# T1 construct: purchased BostonBiochem E-520
# T1 sequence (P40818 1-1118): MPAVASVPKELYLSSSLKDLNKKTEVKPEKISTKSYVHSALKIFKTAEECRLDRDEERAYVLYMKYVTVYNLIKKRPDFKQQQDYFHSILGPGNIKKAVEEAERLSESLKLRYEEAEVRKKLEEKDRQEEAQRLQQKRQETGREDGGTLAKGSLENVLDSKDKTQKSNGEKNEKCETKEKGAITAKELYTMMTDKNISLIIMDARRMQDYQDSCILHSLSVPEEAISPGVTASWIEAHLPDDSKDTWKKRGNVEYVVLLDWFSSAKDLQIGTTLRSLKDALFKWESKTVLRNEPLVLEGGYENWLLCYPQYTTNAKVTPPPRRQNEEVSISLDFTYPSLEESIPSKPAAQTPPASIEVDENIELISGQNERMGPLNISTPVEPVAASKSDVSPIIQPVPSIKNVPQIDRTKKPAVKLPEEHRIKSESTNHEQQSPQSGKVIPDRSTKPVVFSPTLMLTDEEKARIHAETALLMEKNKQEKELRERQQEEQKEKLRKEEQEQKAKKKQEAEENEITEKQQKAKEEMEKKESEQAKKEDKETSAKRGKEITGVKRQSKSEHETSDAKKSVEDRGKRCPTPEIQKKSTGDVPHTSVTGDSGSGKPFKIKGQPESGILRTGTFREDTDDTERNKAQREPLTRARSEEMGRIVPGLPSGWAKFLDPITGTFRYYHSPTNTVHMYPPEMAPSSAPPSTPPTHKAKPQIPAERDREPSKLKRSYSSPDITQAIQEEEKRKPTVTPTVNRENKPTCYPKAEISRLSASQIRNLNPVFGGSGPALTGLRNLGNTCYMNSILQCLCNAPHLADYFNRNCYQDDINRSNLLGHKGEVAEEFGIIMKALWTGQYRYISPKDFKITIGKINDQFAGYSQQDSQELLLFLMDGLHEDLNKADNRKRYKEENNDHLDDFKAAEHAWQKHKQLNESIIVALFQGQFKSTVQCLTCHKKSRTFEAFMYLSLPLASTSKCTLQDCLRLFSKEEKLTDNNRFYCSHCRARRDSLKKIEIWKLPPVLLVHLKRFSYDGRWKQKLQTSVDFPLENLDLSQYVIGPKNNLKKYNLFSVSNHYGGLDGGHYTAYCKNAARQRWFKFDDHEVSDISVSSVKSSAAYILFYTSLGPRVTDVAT
# Method: USP8 FL (USP8 Full Length) was incubated at a concentration of 75 nM in the presence of Ub-Rho (UBIQUIGENT ref. 60-0117-050) at a final concentration of 0.1 μM, in conditions ensuring linearity of enzyme activity throughout the assay in a specific buffer. Compounds were added to the reaction mix at different doses just before the substrate. The enzymatic reaction kinetics were monitored by measuring fluorescence elicited by the hydrolysis of Ub-Rho over 30 min.
# In this setup, an in-house purified catalytic domain of USP8 (USP8CD) was used at a concentration of 80 nM in the presence of the artificial substrate Ubiquitin-Rhodamine 110 (Ub-Rho) (ref: 60-0117-050 Ubiquigent) at a final concentration of 0.1 μM, in conditions ensuring linearity of enzyme activity throughout the assay incubation time. Enzymatic assay was performed in a Tris HCl buffer (40 mM Tris HCl pH 7.4, Ovalbumine 0.5 mg/ml, Cysteine HCl 5.5 mM). Compounds to be tested were added to the reaction mix and incubated with enzyme for 20 min, before the substrate. The enzymatic reaction kinetics were monitored by measuring fluorescence elicited by the hydrolysis of the peptidyl Ub-Rho over 30 minutes. The negative control was the solvent DMSO at 1%.
# Full length USP8 (USPBFL) (BostonBiochem ref. E-520) were used at a concentration of 75 nM in the presence of a ubiquitin substrate, i.e., the Ub-Rhodamine 110 (Ub-Rho) (Ubiquigent ref. 60-0117-050) at a final concentration of 0.1 μM. Enzymatic assays were performed as described for USP8-CD except that USP-FL was used at a concentration of 75 nM. The compounds were used at a final concentration of 0.1, 1, 5, 10, 50 and 100 μM in DMSO 0.5%. The USP8 catalytic activity was monitored both before adding the substrate (TO) and after twenty minutes of incubation at room temperature (Final Time TF). The enzymatic reaction kinetics were monitored by measuring fluorescence elicited by the hydrolysis of the Ub-Rho bound over 30 minutes.
# AtT-20 pituitary cells = assay: Inhibition of ACTH secretion in pituitary cells (ACTH EIA on supernatant); assay type: cell-based, mouse
# Method: ACTH release (percent comparison to DMSO control). Briefly, 12,500 AtT-20 cells per well were seeded in a 96-well plate. After 24 hours exposure, cells were treated with each compound at the indicated final concentration, or with DMSO alone (control condition compound solvent) or with corticotropin releasing factor (indicated CRF) at 100 nM. After a 24-hour treatment, cell supernatants were collected and stored at −80° C., prior to quantification of ACTH concentration using ACTH chemiluminescent EIA kit (Phoenix Pharmaceuticals, Inc.). Determination of ACTH concentrations was based on the best-fitting ACTH standard curve and P values were calculated using one-way ANOVA, using Prism 9 software (GraphPad Software, Inc.) ns (P=0.12). **P<0.002. ***P<0.001. All compounds were tested in technical triplicates. One representative experiment out of three is presented.
# FIG. 4: illustrates a decrease of ACTH secretion by AtT-20 cells after 24-hour treatment of halogenated salicylanilides. 12,500 AtT-20 cells per well were seeded in a 96-well plate. […] After a 24-hour treatment, cell supernatants were collected and stored at −80° C., prior to quantification of ACTH concentration using ACTH chemiluminescent EIA kit (Phoenix Pharmaceuticals, Inc.). Determination of ACTH concentrations was based on the best-fitting ACTH standard curve and P values were calculated by ordinary one-way ANOVA using Prism 6 software (GraphPad Software, Inc), ns (not significant), **** P<0.0001. Compounds were tested in technical triplicates.
# 12,500 AtT-20 cells per well were seeded in a 96-well plate. After 24 hours, cells were treated with compounds (corresponding chemical formula are indicated in Table 1) at 25 μM final concentration, or with DMSO alone (compound solvent). After a 24-hour treatment, cell supernatants were collected and stored at −80° C., prior to quantification of ACTH concentration using ACTH chemiluminescent EIA kit (Phoenix Pharmaceuticals, Inc.). Determination of ACTH concentrations was based on the best-fitting ACTH standard curve and P values were calculated by ordinary one-way ANOVA using Prism 6 software (GraphPad Software, Inc), ns (not significant), *P<0.05, ***P<0,0001. Compounds were tested in technical triplicates.
# Mouse AtT-20 pituitary cell line were used as a powerful and well-characterized model to monitor ACTH secretion using an enzyme immunoassay (EIA) kit.
# Mouse AtT-20 cells were obtained from the American Type Culture Collection and maintained on DMEM containing 10% fetal bovine serum, 100 μg/mL streptomycin and 100 U/mL penicillin at 37° C. with 5% CO2 after recovery from long-term storage on liquid nitrogen-vapor phase.
# The ACTH secretion levels of AtT-20 cell culture was monitored on the supernatant of AtT-20 cells treated or not by increasing doses of compounds belonging to the family of halogenated salicylanilides chemicals.
# 1.25×10^4 AtT20 cells were seeded on polylysine-coated 96-well culture vessels on 150 μL of complete medium. After 24 hours, cells were treated with stock compounds to a final DMSO concentration of 0.5%. After 24 hours of treatment, cell culture supernatant was collected, cleared for 10 min at 1000×g at 4° C., diluted or not in assay buffer (Phoenix Peptide ACTH EIA EK-001-21) and frozen at −80° C. for subsequent processing according to the instructions of the kit's manufacturer.
# AtT-20 cells = assay: Cytotoxicity towards AtT-20 cells (PrestoBlue viability assay); conditions: for cytotoxicity on AtT-20 cells, in words (FIG. 6): 25 μM for 24 hours
# Description: The AtT-20 cells viability was monitored in the conditions used to follow ACTH secretion. The viability of treated cells was concomitantly evaluated using a Cell Viability Reagent (monitoring of the cells' reducing capacity) (PrestoBlue® assay, Molecular Probes) with the aim to determine non-toxic doses of cell treatment.
# After the collection of the supernatant sample for the ACTH assay in the previous step, cells were supplemented with the PrestoBlue™ cell viability reagent (Invitrogen™ A13261) at 10% final volume, and re-incubated at 37° C. for 30 minutes. Fluorescence was then read with a FLUOstar OPTIMA microplate reader.
# [2] = read-out: USP8FL inhbition IC50 [μM] (CI: Confidence Interval)
# [3] = Mus musculus, AtT20, 25 μM, 24-hour treatment, AtT-20 supernatant, read-out: ACTH secretion % of control (DMSO) at 25 μM
SMILES,"IC50 [1, 2] [µM]","inhibition of ACTH at 25 μM, in words (FIG. 4, FIG. 5) (AtT-20 pituitary cells; 25 μM, 24-hour treatment)",activity at 25 µM (AtT-20 pituitary cells; [3]) [%],AtT-20 cell viability (PrestoBlue assay) % of control (DMSO) at 25 μM Mean (SD) (AtT-20 cells; 24-hour exposure),also measured
O=C(Nc1ccc(Cl)cc1)c1cc(I)cc(I)c1O [Amb1935028],11.9,significant inhibition,32,58.81 (34.11) %,"cytotoxicity on AtT-20 cells, in words (FIG. 6) (AtT-20 cells): partially cytotoxic"
Cc1ccc(C(=O)c2cc(NC(=O)c3cc(I)cc(I)c3O)ccc2Cl)cc1 [Amb4103735],3.41,significant inhibition,58,109.4 (18.18) %,–
O=C(Nc1cc(Cl)ccc1Cl)c1cc(I)cc(I)c1O [Amb8477378],13,significant inhibition,41,95.72 (11.42) %,–
Cc1ccc(NC(=O)c2cc(I)cc(I)c2O)cc1 [Amb8477380],14.6,significant inhibition,66,93.51 (11.59) %,–
O=C(Nc1cc(Cl)cc(Cl)c1)c1cc(I)cc(I)c1O [Amb8477462],8.98,significant inhibition,31,67.96 (17.52) %,–
O=C(Nc1ccc(Cl)cc1Cl)c1cc(I)cc(I)c1O [Amb8487151],4.34,significant inhibition,44,89.58 (10.11) %,–
"CC(=O)Oc1c(I)cc(I)cc1C(=O)Nc1ccc(Cl)cc1 [Clioxanide, reference compound]",33.2,significant inhibition,57,94.21 (12.30) %,–
"O=C(Nc1ccc([N+](=O)[O-])cc1Cl)c1cc(Cl)ccc1O [Niclosamide, reference compound]",61,significant inhibition,–,–,"reduction of ACTH secretion levels (AtT-20 pituitary cells; 0.5 μM): 27%; reduction of ACTH secretion levels (AtT-20 pituitary cells; 1.0 μM): 41%; activity at 27 µM (AtT-20 pituitary cells; Mus musculus, AtT20, 27 μM, 24-hour treatment, AtT-20 supernatant, read-out: ACTH secretion % of control (DMSO) (at 27 μM)): 41%; dose-dependent inhibition of ACTH (FIG. 3) (AtT-20 pituitary cells; increasing concentrations, 24-hour treatment): significant dose-dependent inhibition; toxicity in AtT-20 cells, in words (AtT-20 cells; 0.5 μM): no significant toxicity; toxicity in AtT-20 cells, in words (AtT-20 cells; 1.0 μM): no significant toxicity; AtT-20 cell viability (PrestoBlue assay) % of control (DMSO) (at 27 μM) Mean (SD) (AtT-20 cells; 27 μM, 24-hour exposure): 50% (12,40) (at 27 μM); dose-dependent viability assay, in words (FIG. 7) (AtT-20 cells; AtT-20 cells, 24-hour exposure, several doses): considerable effects on viability upon higher doses"
Cc1ccc(NC(=O)c2cc(Cl)ccc2O)cc1 [OSSL-122817],–,ineffective,118,–,–
"O=C(Nc1cc(Cl)cc(Cl)c1O)c1c(O)c(Cl)cc(Cl)c1Cl [Oxyclozanide, reference compound]",7.68,significant inhibition,41,98.08 (14.38) %,–
"O=C(Nc1ccc(Oc2ccc(Cl)cc2)c(Cl)c1)c1cc(I)cc(I)c1O [Rafoxanide, reference compound]",–,significant inhibition,–,–,"ACTH secretion % of control (DMSO) at 25 μM (AtT-20 pituitary cells; 25 μM, 24-hour treatment, AtT-20 supernatant, listed as Rafoxanide Amb2704313, 25 µM): 33%; ACTH secretion % of control (DMSO) at 25 μM (AtT-20 pituitary cells; 25 μM, 24-hour treatment, AtT-20 supernatant, listed as Rafoxanide MCE HY-17598, 25 µM): 57%; cytotoxicity on AtT-20 cells, in words (FIG. 6) (AtT-20 cells): partially cytotoxic; AtT-20 cell viability (PrestoBlue assay) % of control (DMSO) at 25 μM Mean (SD) (AtT-20 cells; 24-hour exposure, listed as Rafoxanide Amb2704313): 39.30 (6.852) %; AtT-20 cell viability (PrestoBlue assay) % of control (DMSO) at 25 μM Mean (SD) (AtT-20 cells; 24-hour exposure, listed as Rafoxanide MCE HY-17598): 56.15 (3.536) %"
"O=C(Nc1ccccc1)c1ccccc1O [Salicylanilide, reference compound]",–,ineffective,–,105.4 (14.77) %,"IC50 ([1]; USP8FL inhbition IC50 [μM] (CI: Confidence Interval)): > 40 µM; activity at 25 µM (AtT-20 pituitary cells; Mus musculus, AtT20, 24 h, read-out: ACTH secretion % of control (DMSO) at 25 μM, 25 μM, 24-hour treatment, AtT-20 supernatant): 99%"
